Test: Evaluation of hydrophobicity degree of dye by TLC (Rf value)
Assay type: physicochemical
Conditions: of the dye used; TLC glass plate RP-18, methanol containing 1 wt % lithium chloride
Method: (Evaluation Method for Hydrophobicity Degree of Hydrophobic Dye Having Cyanine Structure) In order to compare the hydrophobicity degrees of hydrophobic dyes each having a cyanine structure, an evaluation was performed through use of a thin-layer liquid chromatography (hereinafter may be abbreviated as TLC) method. A TLC glass plate RP-18 (manufactured by Merck) was used as a plate for development, and a methanol solution containing 1 wt % of lithium chloride was used as a developing solvent. According to an ordinary method, a dye solution was spotted on the origin, and a relative migration distance (hereinafter may be abbreviated as Rf value) was calculated based on the following equation. Rf value=Distance from origin to center of spot of component/Distance from origin to solvent front
`CN1/C(=C/C=C/C=C/C=C/C2=[N+](C)c3ccccc3C2(C)C)C(C)(C)c2ccccc21` [Chemical formula (A1), 1,1′,3,3,3′,3′-hexamethylindotricarbocyanine iodide] showed a Rf value of 0.45.
Compound `CCN1/C(=C/C=C/C=C/C=C/C2=[N+](CC)c3ccccc3C2(C)C)C(C)(C)c2ccccc21` [Chemical formula (A2), 3H-indolium, 1-ethyl-2-[7-(1-ethyl-1,3-dihydro-3,3-dimethyl-2H-indol-2-ylidene)-1,3,5-heptatrien-1-yl]-3,3-dimethyl-, iodide] has a Rf value of 0.5.
In the case of `CN1/C(=C/C=C2\CCCC(/C=C/C3=[N+](C)c4ccc5ccccc5c4C3(C)C)=C2Cl)C(C)(C)c2c1ccc1ccccc21` [Chemical formula (A3), 2-[2-[2-chloro-3-[2-(1,3-dihydro-1,1,3-trimethyl-2H-benzo[e]-indol-2-ylidene)-ethylidene]-1-cyclohexen-1-yl]-ethenyl]-1,1,3-trimethyl-1H-benzo[e]indolium perchlorate], the Rf value is reported as 0.09.
`CN1\C(=C/C=C/C=C/C=C/C2=[N+](C)c3ccccc3C2(C)C)C(C)(C)c2ccccc21` [Chemical formula (C1), 1,1′,3,3,3′,3′-hexamethylindotricarbocyanine perchlorate] gave a Rf value of 0.45.
Work on `CN1/C(=C/C=C/C=C/C=C/C2=[N+](C)c3ccc4ccccc4c3C2(C)C)C(C)(C)c2c1ccc1ccccc21` [Chemical formula (C2), 1,1′,3,3,3′,3′-hexamethyl-4,4′,5,5′-dibenzo-2,2′-indotricarbocyanine perchlorate] yielded a Rf value of 0.31.

Reference: patent publication US9138492B2, “Particle containing hydrophobic dye having cyanine structure, and contrast agent containing the particle” (CANON KABUSHIKI KAISHA, priority 2012, dated 2015)
